Laboratory results reported in BindingDB's records for doi:10.1073/pnas.250483897 (University of Berne, 2000).
Values joined by “and” are separate entries in the source; they are usually repeats but may differ in a detail not shown here. Equal entries are not always repeated. Starred links: 1 amine or outer side, 2 acyl side, 3 side chain; linkers in the order of their positions; H or OH if unused. Positions of bridges follow the written chain, without caps; N, C: chain ends. Non-standard residues stand in square brackets, D forms with d. Residues, ends and D or L forms follow the SMILES beside them. *: point of attachment. pNA = O=[N+]([O-])c1ccc(N*)cc1; Nle = CCCC[CH](N)C(=O)O; CO = O=C([*:1])[*:2]

Key:
[1] = target: Somatostatin receptor type 4 (Homo sapiens, UniProt P31391); settings: IC50 (nM)
Chain of Somatostatin receptor type 4 (P31391 whole entry): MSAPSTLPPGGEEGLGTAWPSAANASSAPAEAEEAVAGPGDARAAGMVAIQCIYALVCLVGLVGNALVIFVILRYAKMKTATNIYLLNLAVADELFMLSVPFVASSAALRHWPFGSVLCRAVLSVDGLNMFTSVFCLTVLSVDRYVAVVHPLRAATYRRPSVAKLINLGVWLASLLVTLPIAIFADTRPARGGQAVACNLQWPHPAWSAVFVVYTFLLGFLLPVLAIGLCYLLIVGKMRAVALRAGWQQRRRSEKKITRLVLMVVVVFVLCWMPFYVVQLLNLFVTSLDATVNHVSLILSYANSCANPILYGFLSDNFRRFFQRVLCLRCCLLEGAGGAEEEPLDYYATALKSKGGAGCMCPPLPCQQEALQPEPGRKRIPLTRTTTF

[2] = target: Somatostatin receptor type 3 (Homo sapiens, UniProt P32745)
Chain of Somatostatin receptor type 3 (P32745 whole entry): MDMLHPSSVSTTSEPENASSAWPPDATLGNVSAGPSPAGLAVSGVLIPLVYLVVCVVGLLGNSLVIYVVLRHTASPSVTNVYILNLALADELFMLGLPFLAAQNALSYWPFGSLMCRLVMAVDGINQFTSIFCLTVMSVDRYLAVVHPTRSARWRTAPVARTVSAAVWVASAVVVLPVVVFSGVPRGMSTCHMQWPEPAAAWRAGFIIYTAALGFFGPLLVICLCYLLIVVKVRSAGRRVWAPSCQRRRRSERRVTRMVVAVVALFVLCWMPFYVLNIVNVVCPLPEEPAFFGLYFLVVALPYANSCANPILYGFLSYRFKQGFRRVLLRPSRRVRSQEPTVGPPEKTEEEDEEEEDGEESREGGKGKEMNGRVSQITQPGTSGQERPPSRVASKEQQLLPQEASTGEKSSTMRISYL

[3] = target: Somatostatin receptor type 5 (Homo sapiens, UniProt P35346)
Chain of Somatostatin receptor type 5 (P35346 whole entry): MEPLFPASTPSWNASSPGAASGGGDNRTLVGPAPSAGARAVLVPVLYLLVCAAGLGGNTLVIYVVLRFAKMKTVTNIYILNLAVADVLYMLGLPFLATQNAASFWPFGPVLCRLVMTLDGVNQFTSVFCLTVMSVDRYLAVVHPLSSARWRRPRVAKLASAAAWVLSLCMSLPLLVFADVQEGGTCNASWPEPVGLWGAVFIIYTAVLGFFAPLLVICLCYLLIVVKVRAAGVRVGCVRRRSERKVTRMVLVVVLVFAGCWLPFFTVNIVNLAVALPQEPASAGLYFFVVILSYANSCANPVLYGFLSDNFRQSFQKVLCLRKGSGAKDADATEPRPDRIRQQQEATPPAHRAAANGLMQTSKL

SMILES	IC50 [1]	IC50 [2]	IC50 [3]
CSCC[C@H](NC(=O)[C@H](CCCN=C(N)N)NC(=O)[C@@H](N)CC(=O)O)C(=O)N1CCC[C@H]1C(=O)N[C@H]1CSSC[C@@H](C(=O)N[C@@H](CCCCN)C(=O)O)NC(=O)[C@H](CO)NC(=O)[C@H](CO)NC(=O)[C@H](Cc2ccccc2)NC(=O)[C@H]([C@@H](C)O)NC(=O)[C@H](CCCCN)NC(=O)[C@H](Cc2c[nH]c3ccccc23)NC(=O)[C@H](Cc2ccccc2)NC(=O)[C@H](Cc2ccccc2)NC(=O)[C@H](CC(N)=O)NC(=O)[C@H](CCCN=C(N)N)NC1=O [Cortistatin]	2.5 nM	6.8 nM	13 nM
C[C@@H](O)[C@@H]1NC(=O)[C@H](CCCCN)NC(=O)[C@@H](N(C)C(=O)c2ccc3ccccc3c2)NC(=O)[C@H](Cc2ccc(O)cc2)NC(=O)[C@H](Cc2ccccc2)NC(=O)[C@H](N)CSSC[C@@H](C(=O)O)NC(=O)[C@H](Cc2ccccc2)NC1=O [des-AA 1,2,4,5,12,13[D-Cys3,Tyr7, D-Agl8(Me,2-naphthoyl)]-SS]	> 10000 nM and 1000 nM	39 nM	> 10000 nM
CCCCC(NC(=O)NC(Cc1ccccc1)C(=O)Nc1ccc([N+](=O)[O-])cc1)C(=O)NC(CCCCN)C(=O)OC (stereo unspecified) [CAS_5311373] ({pNA-Phe-CO}-[Nle]-Lys-OMe; configuration not given here)	> 10000 nM	127 nM	> 10000 nM
C[C@@H](O)[C@@H]1NC(=O)[C@H](CCCCN)NC(=O)[C@@H](Cc2c[nH]c3ccccc23)NC(=O)[C@H](Cc2ccccc2)NC(=O)[C@H](Cc2ccccc2)NC(=O)[C@@H](N)CSSC[C@@H](C(=O)O)NC(=O)[C@H](Cc2ccccc2)NC1=O [H-c(Cys3-Phe6-Phe7-DTrp8-Lys9-Thr10-Phe11-Cys14)-OH] (H-CFF[dW]KTFC-OH; disulfide 1-8)	1.3 nM	13 nM	45 nM
C[C@@H](O)[C@@H]1NC(=O)[C@H](CCCCN)NC(=O)[C@@H](N(C)C(=O)c2ccc3ccccc3c2)NC(=O)[C@H](Cc2ccc(O)cc2)NC(=O)[C@H](Cc2ccccc2)NC(=O)[C@H](NC(N)=O)CSSC[C@@H](C(=O)O)NC(=O)[C@H](Cc2ccccc2)NC1=O [Carbamoyl-des-AA 1,2,4,5,12,13[D-Cys3,Tyr7, D-Agl8(Me,2-naphthoyl)]-SS(sst3-ODN-8)]	> 10000 nM	6.7 nM	> 10000 nM
C[C@@H](O)[C@@H]1NC(=O)[C@H](CCCCN)NC(=O)[C@@H](NC(=O)c2ccc3ccccc3c2)NC(=O)[C@H](Cc2ccccc2)NC(=O)[C@H](Cc2ccccc2)NC(=O)[C@@H](N)CSSC[C@@H](C(=O)O)NC(=O)[C@H](Cc2ccccc2)NC1=O [des-AA 1,2,4,5,12,13[D-2Nal8]-SS (ODN-8)]	165 nM		
C[C@@H](O)[C@@H]1NC(=O)[C@H](CCCCN)NC(=O)[C@@H](N(C)C(=O)c2ccc3ccccc3c2)NC(=O)[C@H](Cc2ccccc2)NC(=O)[C@H](Cc2ccccc2)NC(=O)[C@H](N)CSSC[C@@H](C(=O)O)NC(=O)[C@H](Cc2ccccc2)NC1=O [des-AA 1,2,4,5,12,13[D-Cys3, D-Agl8(Me,2-naphthoyl)]-SS]	> 10000 nM	115 nM	
C[C@@H](O)[C@@H]1NC(=O)[C@H](CCCCN)NC(=O)[C@@H](N(C)C(=O)c2ccc3ccccc3c2)NC(=O)[C@H](Cc2ccccc2)NC(=O)[C@H](Cc2ccccc2)NC(=O)[C@@H](N)CSSC[C@@H](C(=O)O)NC(=O)[C@H](Cc2ccccc2)NC1=O [des-AA 1,2,4,5,12,13[DAgl8(Me,2-naphthoyl)]-SS]	> 10000 nM	70 nM	> 10000 nM
